Reference: patent US11046680B1, “Heteroaryl-substituted triazoles as APJ receptor agonists” (priority 2016, dated 2021)

target: human APJ receptor (Homo sapiens (Human), UniProt P35414); assay: biochemical; type: biochemical; conditions: [35S]GTPγS binding, CHO membranes expressing human APJ receptor; read-out: Activity hAPJ SPA EC50 IP
Experimental: The human APJ receptor was cloned by polymerase chain reaction and the gene encoding the receptor was subcloned in pFLAG-CMV™-3 expression vector (Sigma, Saint Louis, Mo. USA) in-house at Amgen. A GTPγS binding assay was performed on membranes prepared from CHO cells stably expressing human APJ receptor. The optimum experimental conditions for the concentrations of GDP, MgCl2, and NaCl in the assay buffer were initially determined. […] Incubation was at RT for 90 min and the microplate was read using a ViewLux™ ultra HTS Microplate Imager (PerkinElmer, Inc.).

Chain of human APJ receptor (P35414 whole entry): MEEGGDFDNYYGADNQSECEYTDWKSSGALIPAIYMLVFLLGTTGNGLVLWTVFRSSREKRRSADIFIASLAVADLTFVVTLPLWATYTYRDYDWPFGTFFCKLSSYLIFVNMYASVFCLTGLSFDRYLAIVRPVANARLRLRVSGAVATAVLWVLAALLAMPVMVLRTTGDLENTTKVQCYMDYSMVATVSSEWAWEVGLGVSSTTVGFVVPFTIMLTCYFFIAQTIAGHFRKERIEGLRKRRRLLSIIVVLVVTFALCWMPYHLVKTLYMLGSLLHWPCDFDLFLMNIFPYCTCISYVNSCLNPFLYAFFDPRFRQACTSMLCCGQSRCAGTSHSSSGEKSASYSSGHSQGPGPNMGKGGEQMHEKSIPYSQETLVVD

Point of comparison: COc1cccc(OC)c1-n1c(NS(=O)(=O)[C@@H](C)Cc2ncc(C)cn2)nnc1-c1nc(C)cs1 (single isomer, unassigned) [Example 9.0, (2S)-N-(4-(2,6-dimethoxyphenyl)-5-(4-methyl-1,3-thiazol-2-yl)-4H-1,2,4-triazol-3-yl)-1-(5-methyl-2-pyrimidinyl)-2-propanesulfonamide or (2R)-N-(4-(2,6-dimethoxyphenyl)-5-(4-methyl-1,3-thiazol-2-yl)-4H-1,2,4-triazol-3-yl)-1-(5-methyl-2-pyrimidinyl)-2-propanesulfonamide], EC50 11 nM. Against it:
- COc1cnc([C@H](C)[C@@H](C)S(=O)(=O)Nc2nnc(-c3ccn(C)n3)n2-c2c(OC)cccc2OC)cn1 [Example 301.0, (2R,3S)-N-(4-(2,6-dimethoxyphenyl)-5-(1-methyl-1H-pyrazol-3-yl)-4H-1,2,4-triazol-3-yl)-3-(5-methoxy-2-pyrazinyl)-2-butanesulfonamide] — the same, 11 nM
- COc1cccc(OC)c1-n1c(NS(=O)(=O)[C@@H](C)[C@H](OC)c2cnc(C)cn2)nnc1-c1cc(C)[nH]n1 [Example 348.0, (1R,2S)-N-(4-(2,6-dimethoxyphenyl)-5-(5-methyl-1H-pyrazol-3-yl)-4H-1,2,4-triazol-3-yl)-1-methoxy-1-(5-methyl-2-pyrazinyl)-2-propanesulfonamide] — 2.6-fold lower, 4.3 nM
- COc1cccc(OC)c1-n1c(NS(=O)(=O)[C@@H](C)[C@H](C)c2ncc(F)cn2)nnc1-c1cnn2c1CCC2 [Example 479.0, (2S,3R)-N-(5-(5,6-dihydro-4H-pyrrolo[1,2-b]pyrazol-3-yl)-4-(2,6-dimethoxyphenyl)-4H-1,2,4-triazol-3-yl)-3-(5-fluoropyrimidin-2-yl)butane-2-sulfonamide] — 20-fold lower, 0.56 nM
- COc1ccccc1-n1c(NS(=O)(=O)CCc2ccc(F)cc2)nnc1-c1cccs1 [Example 359.0, 2-(4-Fluorophenyl)-N-(4-(2-methoxyphenyl)-5-(thiophen-2-yl)-4H-1,2,4-triazol-3-yl)ethanesulfonamide] — 13-fold higher, 143 nM
- COc1cccc(OC)c1-n1c(NS(=O)(=O)[C@@H](C)Cc2ncc(C)cn2)nnc1-c1nc(C)cs1 (single isomer, unassigned) [Example 8.0, (2S)-N-(4-(2,6-dimethoxyphenyl)-5-(4-methyl-1,3-thiazol-2-yl)-4H-1,2,4-triazol-3-yl)-1-(5-methyl-2-pyrimidinyl)-2-propanesulfonamide or (2R)-N-(4-(2,6-dimethoxyphenyl)-5-(4-methyl-1,3-thiazol-2-yl)-4H-1,2,4-triazol-3-yl)-1-(5-methyl-2-pyrimidinyl)-2-propanesulfonamide] — 15-fold lower, 0.75 nM
- COc1cccc(OC)c1-n1c(NS(=O)(=O)[C@@H](C)[C@H](OC)c2ncc(C)cn2)nnc1-c1cnn2c1CCC2 [Example 444.0, (1R,2S)-N-(5-(5,6-dihydro-4H-pyrrolo[1,2-b]pyrazol-3-yl)-4-(2,6-dimethoxyphenyl)-4H-1,2,4-triazol-3-yl)-1-methoxy-1-(5-methylpyrimidin-2-yl)propane-2-sulfonamide] — 9.2-fold lower, 1.2 nM
- COc1cccc(OC)c1-n1c(NS(=O)(=O)[C@H](C)Cc2ncc(F)cn2)nnc1-c1nc(C)cs1 (single isomer, unassigned) [Example 102.0, (R)-N-(4-(2,6-Dimethoxyphenyl)-5-(4-methylthiazol-2-yl)-4H-1,2,4-triazol-3-yl)-1-(5-fluoropyrimidin-2-yl)propane-2-sulfonamide or (S)-N-(4-(2,6-dimethoxyphenyl)-5-(4-methylthiazol-2-yl)-4H-1,2,4-triazol-3-yl)-1-(5-fluoropyrimidin-2-yl)propane-2-sulfonamide] — 2.7-fold lower, 4.1 nM
- O=S(=O)(Cc1ccc(Cl)cc1)Nc1nnc(-c2cccs2)n1-c1ccccc1C(F)(F)F [Example 356.0, 1-(4-Chlorophenyl)-N-(5-(thiophen-2-yl)-4-(2-(trifluoromethyl)phenyl)-4H-1,2,4-triazol-3-yl)methanesulfonamide] — higher, > 12500 nM
- COc1cccc(OC)c1-n1c(NS(=O)(=O)CCc2ccc(Cl)cc2)nnc1-c1cscn1 [Example 91.0, 2-(4-chlorophenyl)-N-(4-(2,6-dimethoxyphenyl)-5-(thiazol-4-yl)-4H-1,2,4-triazol-3-yl)ethanesulfonamide] — 2.4-fold higher, 26 nM
- CCc1csc(-c2nnc(NS(=O)(=O)CCc3ccc(Cl)cc3)n2-c2c(OC)cccc2OC)n1 [Example 152.0, 2-(4-chlorophenyl)-N-(4-(2,6-dimethoxyphenyl)-5-(4-ethylthiazol-2-yl)-4H-1,2,4-triazol-3-yl)ethanesulfonamide] — higher, > 12500 nM
- CC(C)O[C@@H](c1ncc(Cl)cn1)[C@H](C)S(=O)(=O)Nc1nnc(-c2ccn(C)n2)n1C1(C)CC1 [Example 538.0, (1S,2S)-1-(5-chloro-2-pyrimidinyl)-N-(4-(1-methylcyclopropyl)-5-(1-methyl-1H-pyrazol-3-yl)-4H-1,2,4-triazol-3-yl)-1-(2-propanyloxy)-2-propanesulfonamide] — 1.8-fold higher, 20 nM
- COc1cccc(OC)c1-n1c(NS(=O)(=O)[C@H](C)[C@H](O)c2ncc(C)cn2)nnc1-c1nc(C)cs1 (single isomer, unassigned) [Example 317.0, (1R,2R)-N-(4-(2,6-dimethoxyphenyl)-5-(4-methylthiazol-2-yl)-4H-1,2,4-triazol-3-yl)-1-hydroxy-1-(5-methylpyrimidin-2-yl)propane-2-sulfonamide or (1S,2S)-N-(4-(2,6-dimethoxyphenyl)-5-(4-methylthiazol-2-yl)-4H-1,2,4-triazol-3-yl)-1-hydroxy-1-(5-methylpyrimidin-2-yl)propane-2-sulfonamide] — 1.7-fold lower, 6.6 nM
- COc1cccc(OC)c1-n1c(NS(=O)(=O)[C@@H](C)[C@H](OC)c2ncc(C)cn2)nnc1-c1cnccn1 [Example 337.0, (1R,2S)-N-(4-(2,6-dimethoxyphenyl)-5-(2-pyrazinyl)-4H-1,2,4-triazol-3-yl)-1-methoxy-1-(5-methyl-2-pyrimidinyl)-2-propanesulfonamide] — 1.6-fold lower, 6.8 nM
- COc1cccc(OC)c1-n1c(NS(=O)(=O)[C@@H](C)[C@H](OC)c2cnc(C)cn2)nnc1-c1cc2n(n1)CCC2 [Example 216.0, (1R,2S)-N-(5-(5,6-dihydro-4H-pyrrolo[1,2-b]pyrazol-2-yl)-4-(2,6-dimethoxyphenyl)-4H-1,2,4-triazol-3-yl)-1-methoxy-1-(5-methyl-2-pyrazinyl)-2-propanesulfonamide] — 3-fold lower, 3.7 nM
- COc1cccc(OC)c1-n1c(NS(=O)(=O)[C@@H](C)[C@H](C)c2ncc(Cl)cn2)nnc1-c1cc2n(n1)CCC2 [Example 221.0, (2S,3R)-3-(5-chloro-2-pyrimidinyl)-N-(5-(5,6-dihydro-4H-pyrrolo[1,2-b]pyrazol-2-yl)-4-(2,6-dimethoxyphenyl)-4H-1,2,4-triazol-3-yl)-2-butanesulfonamide] — 34-fold lower, 0.32 nM
- COc1cccc(OC)c1-n1c(NS(=O)(=O)CCc2ccc(Cl)cc2)nnc1-c1ncco1 [Example 92.0, 2-(4-chlorophenyl)-N-(4-(2,6-dimethoxyphenyl)-5-(oxazol-2-yl)-4H-1,2,4-triazol-3-yl)ethanesulfonamide] — 6.5-fold higher, 71 nM
- COc1cccc(OC)c1-n1c(NS(=O)(=O)[C@@H](C)[C@H](OC)c2ncc(C)cn2)nnc1-c1cnc2[nH]ccc2n1 [Example 206.0] — 8.7-fold higher, 96 nM
- COc1cccc(OC)c1-n1c(NS(=O)(=O)[C@H](C)[C@@H](C)c2ncc(Cl)cn2)nnc1-c1ccn(C)n1 [Example 443.0, (2R,3S)-3-(5-chloropyrimidin-2-yl)-N-(4-(2,6-dimethoxyphenyl)-5-(1-methyl-1H-pyrazol-3-yl)-4H-1,2,4-triazol-3-yl)butane-2-sulfonamide] — 1.7-fold lower, 6.4 nM
- CCc1csc(-c2nnc(NS(=O)(=O)[C@H](C)Cc3ncc(F)cn3)n2-c2c(OC)cccc2OC)n1 [Example 106.0] — 1.9-fold higher, 21 nM
- COc1cccc(OC)c1-n1c(NS(=O)(=O)[C@@H](C)[C@H](OC)c2ncc(C)cn2)nnc1-c1noc2ccc(Br)cc12 [Example 414.0] — 19-fold higher, 210 nM
- COc1cccc(OC)c1-n1c(NS(=O)(=O)[C@H](C)[C@@H](C)c2ncc(C)cn2)nnc1-c1n[nH]c2ccccc12 [Example 431.0, (2R,3S)-N-(4-(2,6-dimethoxyphenyl)-5-(1H-indazol-3-yl)-4H-1,2,4-triazol-3-yl)-3-(5-methylpyrimidin-2-yl)butane-2-sulfonamide] — within 1.5-fold, 14 nM
- COc1cccc(OC)c1-n1c(NS(=O)(=O)[C@@H](C)[C@H](O)c2ncc(C)cn2)nnc1-c1cc(C)n[nH]1 [Example 349.0, (1R,2S)-N-(4-(2,6-Dimethoxyphenyl)-5-(3-methyl-1H-pyrazol-5-yl)-4H-1,2,4-triazol-3-yl)-1-hydroxy-1-(5-methylpyrimidin-2-yl)propane-2-sulfonamide] — 5.2-fold lower, 2.1 nM
- COc1cccc(OC)c1-n1c(NS(=O)(=O)[C@@H](C)[C@H](C)c2ncc(Cl)cn2)nnc1-c1noc2c1CCCC2 [Example 441.0, (2S,3R)-3-(5-chloropyrimidin-2-yl)-N-(4-(2,6-dimethoxyphenyl)-5-(4,5,6,7-tetrahydrobenzo[d]isoxazol-3-yl)-4H-1,2,4-triazol-3-yl)butane-2-sulfonamide] — 33-fold lower, 0.33 nM
- COc1cccc(OC)c1-n1c(NS(=O)(=O)C[C@H](O)c2ccc(F)cc2S(C)(=O)=O)nnc1-c1ccn(C)n1 (single isomer, unassigned) [Example 371.0, (R)-N-(4-(2,6-Dimethoxyphenyl)-5-(1-methyl-1H-pyrazol-3-yl)-4H-1,2,4-triazol-3-yl)-2-(4-fluoro-2-(methylsulfonyl)phenyl)-2-hydroxyethanesulfonamide or (S)-N-(4-(2,6-dimethoxyphenyl)-5-(1-methyl-1H-pyrazol-3-yl)-4H-1,2,4-triazol-3-yl)-2-(4-fluoro-2-(methylsulfonyl)phenyl)-2-hydroxyethanesulfonamide] — 5-fold lower, 2.2 nM
